Here are results for 15 molecules from US20250163104A1, “MACROCYCLIC IMMUNOMODULATORS” (priority 2021, published 2025).

What is called IC50 is the midpoint of a concentration-inhibition curve.

The assay has as its target T1, human PD-1 / PD-L1-Ig binding on Jurkat cell line over-expressing human PD-1 (Jurkat-PD-1) (Homo sapiens, UniProt Q15116).
T1 construct: expressed in transfected cells; host or cells: Jurkat
Briefly: Jurkat-PD-1 Cell Binding High-Content Screening Assay (CBA). In kind it is cell-based. The settings on record: Jurkat-PD-1 cells, PE-labeled PD-L1-Ig 20 nM final; read-out: Jurkat HPD1_PDL1 IC50. In short, it runs like this:
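Read-out: high-content imaging of PE-tagged PD-L1-Ig bound to Jurkat cells overexpressing human PD-1, after fixation with 4% paraformaldehyde and Hoechst 33342 nuclear staining. Ligand was used at 20 nM final for 1 hour, after a 2 h compound exposure at 37° C in serum-containing DMEM.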

Molecules are shown by their SMILES. Where a SMILES comes first, the peptide text is derived from it. Bridges are numbered along the chain shown (N, C = ends). [ ]: non-standard residue; d: D form. The star is where a group is joined. ξ: configuration not given here. Phe(4-COOH) = N[C@@H](Cc1ccc(C(=O)O)cc1)C(=O)O; Trp(7-F) = N[C@@H](Cc1c[nH]c2c(F)cccc12)C(=O)O; Phe(3,4-F2) = N[C@@H](Cc1ccc(F)c(F)c1)C(=O)O; Bip = N[C@@H](Cc1ccc(-c2ccccc2)cc1)C(=O)O; Phe(3-OMe) = COc1cccc(C[C@H](N)C(=O)O)c1; Phe(3-Me) = Cc1cccc(C[C@H](N)C(=O)O)c1; Val(3-OH) = CC(C)(O)[C@H](N)C(=O)O; 4Pal = N[C@@H](Cc1ccncc1)C(=O)O; Cha = N[C@@H](CC1CCCCC1)C(=O)O; Cit = NC(=O)NCCC[C@H](N)C(=O)O; Thr(3ξ) = CC(O)[C@H](N)C(=O)O; Carboxymethyl = O=C(O)C*; Orn = NCCC[C@H](N)C(=O)O; Dab = NCC[C@H](N)C(=O)O; Dap = NC[C@H](N)C(=O)O; ξOrn = NCCCC(N)C(=O)O

T1 sequence (Q15116 25-288): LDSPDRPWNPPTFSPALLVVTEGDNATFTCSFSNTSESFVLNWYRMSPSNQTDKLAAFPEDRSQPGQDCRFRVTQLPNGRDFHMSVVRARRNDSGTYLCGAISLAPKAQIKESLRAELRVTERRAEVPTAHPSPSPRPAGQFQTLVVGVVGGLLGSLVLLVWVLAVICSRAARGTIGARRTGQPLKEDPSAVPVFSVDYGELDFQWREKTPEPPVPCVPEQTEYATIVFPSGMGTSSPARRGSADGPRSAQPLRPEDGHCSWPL

Turning to `Cc1cccc(C[C@@H]2NC(=O)[C@H](CC(=O)O)NC(=O)[C@H](Cc3ccc(OCC(=O)O)cc3)NC(=O)[C@H]([C@@H](C)O)NC(=O)CSC[C@@H](C(N)=O)NC(=O)[C@H]([C@@H](C)O)NC(=O)[C@H](C(C)C)NC(=O)[C@H](CC3CCCCC3)NC(=O)[C@H](CCN)NC(=O)[C@@H](CC(C)C)NC(=O)[C@H](CCCN)NC(=O)[C@H](Cc3ccc(OCC(=O)O)cc3)NC(=O)[C@H](Cc3ccc(-c4ccccc4)cc3)NC(=O)[C@H](Cc3ccc(OCC(=O)O)cc3)NC2=O)c1` [Compound 1800] ({CH2CO}-TY(Carboxymethyl)D[Phe(3-Me)]Y(Carboxymethyl)[Bip]Y(Carboxymethyl)[Orn][dL][Dab][Cha]VTC-NH2; thioether N-14), the IC50 worked out at 17.3 nM. For the molecule `CC(C)C[C@H]1NC(=O)[C@H](CCCN)NC(=O)[C@H](CCC(=O)O)NC(=O)[C@H](Cc2ccc(-c3ccccc3)cc2)NC(=O)[C@H](C(C)C)NC(=O)[C@H](Cc2c[nH]c3ccccc23)NC(=O)[C@H](CC(=O)O)NC(=O)[C@H](Cc2ccc(OCC(=O)O)cc2)NC(=O)[C@H](CN)NC(=O)CSC[C@@H](C(=O)N[C@@H](C)C(N)=O)NC(=O)[C@H]([C@@H](C)O)NC(=O)[C@H](C(C)C)NC(=O)[C@H](Cc2ccc(F)c(F)c2)NC(=O)[C@H](CCN)NC1=O` [Compound 1482] ({CH2CO}-[Dap]Y(Carboxymethyl)DWV[Bip]E[Orn][dL][Dab][Phe(3,4-F2)]VTCA-NH2; thioether N-14), the IC50 was 104 nM. On to `CC(C)C[C@H]1NC(=O)C(CCCN)NC(=O)[C@H](CCCNC(N)=O)NC(=O)[C@H](Cc2ccc(-c3ccccc3)cc2)NC(=O)[C@H](C(C)C)NC(=O)[C@H](Cc2c[nH]c3ccccc23)NC(=O)[C@H](CC(=O)O)NC(=O)[C@H](Cc2ccc(C(=O)O)cc2)NC(=O)[C@H](CN)NC(=O)CSC[C@@H](C(=O)N[C@@H](C)C(N)=O)NC(=O)[C@H]([C@@H](C)O)NC(=O)[C@H](C(C)C)NC(=O)[C@H](CC2CCCCC2)NC(=O)[C@H](CCN)NC1=O` (stereo partly drawn) [Compound 1333] ({CH2CO}-[Dap][Phe(4-COOH)]DWV[Bip][Cit][ξOrn][dL][Dab][Cha]VTCA-NH2; thioether N-14), for which the IC50 amounted to 6.9 nM.

For the molecule `Cc1cccc(C[C@@H]2NC(=O)[C@H](CC(=O)O)NC(=O)[C@H](Cc3ccc(OCC(=O)O)cc3)NC(=O)[C@H](Cc3cnc[nH]3)NC(=O)CSC[C@@H](C(=O)N[C@H](C)C(N)=O)NC(=O)[C@H](C(C)O)NC(=O)[C@H](C(C)(C)O)NC(=O)[C@H](CC3CCCCC3)NC(=O)[C@H](CCN)NC(=O)[C@@H](CC(C)C)NC(=O)[C@H](CCCN)NC(=O)[C@H](Cc3ccc(OCC(=O)O)cc3)NC(=O)[C@H](Cc3ccc(-c4ccccc4)cc3)NC(=O)[C@H](Cc3ccc(OCC(=O)O)cc3)NC2=O)c1` (stereo partly drawn) [Compound 2650] ({CH2CO}-HY(Carboxymethyl)D[Phe(3-Me)]Y(Carboxymethyl)[Bip]Y(Carboxymethyl)[Orn][dL][Dab][Cha][Val(3-OH)][Thr(3ξ)]C[dA]-NH2; thioether N-14), the IC50 came to 38.5 nM. Consider `CC(C)C[C@@H]1NC(=O)[C@H](CCN)NC(=O)[C@@H](CC(C)C)NC(=O)[C@H](CCCN)NC(=O)[C@H](CCCNC(N)=O)NC(=O)[C@H](Cc2ccc(-c3ccccc3)cc2)NC(=O)[C@H](C(C)C)NC(=O)[C@H](Cc2c[nH]c3ccccc23)NC(=O)[C@H](CC(=O)O)NC(=O)[C@H](Cc2ccncc2)NC(=O)[C@H](CN)NC(=O)CSC[C@@H](C(=O)N[C@@H](C)C(N)=O)NC(=O)[C@H]([C@@H](C)O)NC(=O)[C@H](C(C)C)NC1=O` [Compound 1240] ({CH2CO}-[Dap][4Pal]DWV[Bip][Cit][Orn][dL][Dab]LVTCA-NH2; thioether N-14), for which the IC50 was 119 nM. `CC(C)C[C@H]1NC(=O)[C@H](CCCN)NC(=O)[C@H](CCC(=O)O)NC(=O)[C@H](Cc2ccc(-c3ccccc3)cc2)NC(=O)[C@H](C(C)C)NC(=O)[C@H](Cc2ccc(Cl)c(Cl)c2)NC(=O)[C@H](CC(=O)O)NC(=O)[C@H](Cc2ccc(OCC(=O)O)cc2)NC(=O)[C@H](CN)NC(=O)CSC[C@@H](C(=O)N[C@@H](C)C(N)=O)NC(=O)[C@H]([C@@H](C)O)NC(=O)[C@H](C(C)C)NC(=O)[C@H](CC2CCCCC2)NC(=O)[C@H](CCN)NC1=O` [Compound 2152]: the IC50 turned out to be 11.1 nM. Turning to `CC(C)C[C@@H]1NC(=O)[C@H](Cc2c[nH]c3ccccc23)NC(=O)[C@H](CC(=O)O)NC(=O)[C@H](Cc2ccc(O)cc2)NC(=O)[C@H](Cc2ccccc2)NC(=O)CSC[C@@H](C(=O)N[C@@H](C)C(N)=O)NC(=O)[C@H](CO)NC(=O)[C@H](C(C)C)NC(=O)[C@H](CC(C)C)NC(=O)[C@H](CC(N)=O)NC(=O)[C@@H](C)NC(=O)[C@@H](CCCCN)NC(=O)[C@H](C(C)C)NC(=O)[C@H](Cc2ccc(-c3ccccc3)cc2)NC1=O` [Compound 2000] ({CH2CO}-FYDWL[Bip]V[dK][dA]NLVSCA-NH2; thioether N-14), the IC50 is 39.4 nM. Then `COc1cccc(C[C@@H]2NC(=O)[C@H](CC(=O)O)NC(=O)[C@H](Cc3ccc(OCC(=O)O)cc3)NC(=O)[C@H](Cc3ccncc3)NC(=O)CSC[C@@H](C(=O)N[C@@H](C)C(N)=O)NC(=O)[C@H]([C@@H](C)O)NC(=O)[C@H](C(C)C)NC(=O)[C@H](CC(C)C)NC(=O)[C@H](CCN)NC(=O)[C@@H](CC(C)C)NC(=O)[C@H](CCCN)NC(=O)[C@H](CCCNC(N)=O)NC(=O)[C@H](Cc3ccc(-c4ccccc4)cc3)NC(=O)[C@H](C(C)C)NC2=O)c1` [Compound 1185] ({CH2CO}-[4Pal]Y(Carboxymethyl)D[Phe(3-OMe)]V[Bip][Cit][Orn][dL][Dab]LVTCA-NH2; thioether N-14), with 7.4 nM; and `Cc1cccc(C[C@@H]2NC(=O)[C@H](CC(=O)O)NC(=O)[C@H](Cc3ccc(OCC(=O)O)cc3)NC(=O)[C@H](CN)NC(=O)CSC[C@@H](C(N)=O)NC(=O)[C@H](CCCN)NC(=O)[C@H](C(C)C)NC(=O)[C@H](CC3CCCCC3)NC(=O)[C@H](CCN)NC(=O)[C@@H](CC(C)C)NC(=O)[C@H](CCCN)NC(=O)[C@H](Cc3ccc(OCC(=O)O)cc3)NC(=O)[C@H](Cc3ccc(-c4ccccc4)cc3)NC(=O)[C@H](Cc3ccc(OCC(=O)O)cc3)NC2=O)c1` [Compound 1779] ({CH2CO}-[Dap]Y(Carboxymethyl)D[Phe(3-Me)]Y(Carboxymethyl)[Bip]Y(Carboxymethyl)[Orn][dL][Dab][Cha]V[Orn]C-NH2; thioether N-14), with 16.6 nM.

In the case of `CC(C)C[C@H]1NC(=O)[C@H](CCCN)NC(=O)[C@H](C(C)C)NC(=O)[C@H](Cc2ccc(-c3ccccc3)cc2)NC(=O)[C@H](C(C)C)NC(=O)[C@H](Cc2c[nH]c3ccccc23)NC(=O)[C@H](CC(=O)O)NC(=O)[C@H](Cc2ccc(OCC(=O)O)cc2)NC(=O)[C@H](Cc2cnc[nH]2)NC(=O)CSC[C@@H](C(=O)N[C@H](C)C(N)=O)NC(=O)[C@H](C(C)O)NC(=O)[C@H](C(C)C)NC(=O)[C@H](CC2CCCCC2)NC(=O)[C@H](CCN)NC1=O` (stereo partly drawn) [Compound 2563] ({CH2CO}-HY(Carboxymethyl)DWV[Bip]V[Orn][dL][Dab][Cha]V[Thr(3ξ)]C[dA]-NH2; thioether N-14), the IC50 is 3 nM. The value for `CCCC[C@H]1NC(=O)[C@H](CCCN)NC(=O)[C@H](CCCNC(N)=O)NC(=O)[C@H](Cc2ccc(-c3ccccc3)cc2)NC(=O)[C@H](C(C)C)NC(=O)[C@H](Cc2c[nH]c3ccccc23)NC(=O)[C@H](CC(=O)O)NC(=O)[C@H](Cc2ccncc2)NC(=O)[C@H](CN)NC(=O)CSC[C@@H](C(=O)N[C@@H](C)C(N)=O)NC(=O)[C@H]([C@@H](C)O)NC(=O)[C@H](C(C)C)NC(=O)[C@H](CC2CCCCC2)NC(=O)[C@H](CCN)NC1=O` [Compound 1703] was 25.1 nM. With `CC(C)C[C@H]1NC(=O)[C@H](CCCN)NC(=O)[C@H](C(C)C)NC(=O)[C@H](Cc2ccc(-c3ccccc3)cc2)NC(=O)[C@H](C(C)C)NC(=O)[C@H](Cc2c[nH]c3c(F)cccc23)NC(=O)[C@H](CC(=O)O)NC(=O)[C@H](Cc2ccc(OCC(=O)O)cc2)NC(=O)[C@H](CN)NC(=O)CSC[C@@H](C(=O)N[C@@H](CCN)C(N)=O)NC(=O)[C@H]([C@@H](C)O)NC(=O)[C@H](C(C)C)NC(=O)[C@H](CC2CCCCC2)NC(=O)[C@H](CCN)NC1=O` [Compound 2020] ({CH2CO}-[Dap]Y(Carboxymethyl)D[Trp(7-F)]V[Bip]V[Orn][dL][Dab][Cha]VTC[Dab]-NH2; thioether N-14), the IC50 was found to be 13.1 nM. On to `CC(C)C[C@H]1NC(=O)[C@H](CCCN)NC(=O)[C@H](CCC(=O)O)NC(=O)[C@H](Cc2ccc(-c3ccccc3)cc2)NC(=O)[C@H](C(C)C)NC(=O)[C@H](Cc2c[nH]c3ccccc23)NC(=O)[C@H](CC(=O)O)NC(=O)[C@H](Cc2ccncc2)NC(=O)[C@H](Cc2ccc(OCC(=O)O)cc2)NC(=O)CSC[C@@H](C(=O)N[C@@H](C)C(N)=O)NC(=O)[C@H]([C@@H](C)O)NC(=O)[C@H](C(C)C)NC(=O)[C@H](CC2CCCCC2)NC(=O)[C@H](CCN)NC1=O` [Compound 1423], for which the IC50 came out at 9.9 nM.

For the molecule `CC(C)C[C@@H]1NC(=O)[C@H](CCN)NC(=O)[C@@H](CC(C)C)NC(=O)[C@H](CCCN)NC(=O)[C@H](CCCNC(N)=O)NC(=O)[C@H](Cc2ccc(-c3ccccc3)cc2)NC(=O)[C@H](C(C)C)NC(=O)[C@H](Cc2c[nH]c3ccccc23)NC(=O)[C@H](CC(=O)O)NC(=O)[C@H](Cc2ccc(O)cc2)NC(=O)[C@H](CC(N)=O)NC(=O)CSC[C@@H](C(=O)N[C@@H](C)C(N)=O)NC(=O)[C@H](CO)NC(=O)[C@H](C(C)C)NC1=O` [Compound 1109] ({CH2CO}-NYDWV[Bip][Cit][Orn][dL][Dab]LVSCA-NH2; thioether N-14), the IC50 is 36 nM. As to `CC(C)C[C@H]1NC(=O)[C@H](CCCN)NC(=O)[C@H](CCC(=O)O)NC(=O)[C@H](Cc2ccc(-c3ccccc3)cc2)NC(=O)[C@H](C(C)C)NC(=O)[C@H](Cc2cccc(Cl)c2)NC(=O)[C@H](CC(=O)O)NC(=O)[C@H](Cc2ccc(OCC(=O)O)cc2)NC(=O)[C@H](Cc2cccnc2)NC(=O)CSC[C@@H](C(=O)N[C@@H](C)C(N)=O)NC(=O)[C@H]([C@@H](C)O)NC(=O)[C@H](C(C)C)NC(=O)[C@H](CC2CCCCC2)NC(=O)[C@H](CCN)NC1=O` [Compound 1501], the IC50 came out at 10.7 nM.
